# Measurements reported in patent publication US12054498B2, “Heteroaromatic macrocyclic ether chemotherapeutic agents” (Nuvalent, Inc., priority 2020, dated 2024).
# Tests used:
# Type in all cases: cell-based
# [1] = target: T1, Ba/F3 cells CD74-ROS1 G2032R (Homo sapiens, UniProt P08922, G2032R); test: Ba/F3 cell proliferation assay, CD74-ROS1 G2032R; settings: 72 hours, CellTiter-Glo
# T1 construct: fusion of the C-terminus of ROS1 with the N-terminus of various partner proteins; host or cells: Ba/F3 (RIKEN), retroviral pMSCV-puro; the other entry of the earlier key: CD74 (P04233, HLA class II histocompatibility antigen gamma chain)
# T1 sequence (P08922 1883-2347 G2032R limits assumed): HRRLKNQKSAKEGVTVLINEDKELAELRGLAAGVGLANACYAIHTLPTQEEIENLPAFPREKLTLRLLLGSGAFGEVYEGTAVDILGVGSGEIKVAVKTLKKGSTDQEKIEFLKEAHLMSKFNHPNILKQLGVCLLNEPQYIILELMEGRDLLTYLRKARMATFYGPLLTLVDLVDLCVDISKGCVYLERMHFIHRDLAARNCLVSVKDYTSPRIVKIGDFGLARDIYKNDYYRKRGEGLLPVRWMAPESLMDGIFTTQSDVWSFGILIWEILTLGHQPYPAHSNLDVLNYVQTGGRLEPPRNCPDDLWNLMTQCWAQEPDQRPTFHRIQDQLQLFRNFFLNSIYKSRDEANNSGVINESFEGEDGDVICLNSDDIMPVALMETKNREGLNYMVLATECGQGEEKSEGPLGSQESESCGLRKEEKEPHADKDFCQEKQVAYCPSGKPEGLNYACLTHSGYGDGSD
# Procedure: (§1) The virus was used to infect Ba/F3 cells (RIKEN) at multiplicity of infection=1 for 1 day. Infected cells were rescued in media (RPMI-1640 with 10% fetal bovine serum and 1% streptomycin and penicillin) supplemented with mouse IL-3 (10 ng/mL) for 2 days, and stable cell lines were selected by IL-3 withdrawal and puromycin (0.8 μg/mL) for 7 days. Monoclones were selected by single-cell dilution in IL-3-free medium containing puromycin (0.8 μg/mL).
# (§2) Cell Proliferation Assay Stable cells were plated at 1,000 cells/well (40 μL) in a 384-well plate for 1 day.
# (§3) Test compounds (40 nL) were then added in a 3-fold dilution series using the TECAN EVO200 liquid handler and incubated for 72 hours. Plates were equilibrated at room temperature for 15 minutes followed by addition of 40 μL CellTiter-Glo reagent (Promega).
# (§4) Luminescence was measured on a plate reader. Half-maximal inhibitory concentration (IC50) was calculated from percent inhibition and inhibitor concentration using four-parameter logistic regression. […] (nd=not determined).
# [2] = test system: TPM3-NTRK1-wt IC50 / primary target IC50 (e.g. CD74-ROS1-wt); test: TRKA selectivity in Ba/F3 cells (TRKA potency divided by primary target potency); settings: for TPM3-NTRK1-wt/CD74-ROS1-G2032R selectivity ratio: TRKA potency / CD74-ROS1-G2032R potency; for TPM3-NTRK1-wt/CD74-ROS1-wt selectivity ratio: TRKA potency / CD74-ROS1-wt potency; for TPM3-NTRK1-wt/EML4-ALK-L1196M-G1202R selectivity ratio: TRKA potency / EML4-ALK-L1196M-G1202R potency; for TPM3-NTRK1-wt/EML4-ALK-wt selectivity ratio: TRKA potency / EML4-ALK-wt potency
# Procedure: TRKA selectivity was calculated by dividing a compound's TRKA potency by its primary target potency (e.g. TPM3-NTRK1-wt IC50/CD74-ROS1-wt IC50). Compound selectivity can be interpreted by binning ratio values: bin A for very high selectivity, ratio >30-fold; bin B for high selectivity, ratio >10-fold; bin C for moderate selectivity, ratio ≥1; and bin D for low selectivity, ratio <1. […] (nd=not determined).
# [3] = target: T2, Ba/F3 cells EML4-ALK wt (variant 1) (Homo sapiens, UniProt Q9UM73); test: Ba/F3 cell proliferation assay, EML4-ALK wt (variant 1); settings: 72 hours, CellTiter-Glo
# T2 construct: echinoderm microtubule-associated protein-like 4 (EML4) gene and the ALK tyrosine kinase domain; host or cells: Ba/F3 (RIKEN), retroviral pMSCV-puro; the other entry of the earlier key: EML4 (Q9HC35, Echinoderm microtubule-associated protein-like 4)
# T2 sequence (Q9UM73 with tags, fused parts or gaps): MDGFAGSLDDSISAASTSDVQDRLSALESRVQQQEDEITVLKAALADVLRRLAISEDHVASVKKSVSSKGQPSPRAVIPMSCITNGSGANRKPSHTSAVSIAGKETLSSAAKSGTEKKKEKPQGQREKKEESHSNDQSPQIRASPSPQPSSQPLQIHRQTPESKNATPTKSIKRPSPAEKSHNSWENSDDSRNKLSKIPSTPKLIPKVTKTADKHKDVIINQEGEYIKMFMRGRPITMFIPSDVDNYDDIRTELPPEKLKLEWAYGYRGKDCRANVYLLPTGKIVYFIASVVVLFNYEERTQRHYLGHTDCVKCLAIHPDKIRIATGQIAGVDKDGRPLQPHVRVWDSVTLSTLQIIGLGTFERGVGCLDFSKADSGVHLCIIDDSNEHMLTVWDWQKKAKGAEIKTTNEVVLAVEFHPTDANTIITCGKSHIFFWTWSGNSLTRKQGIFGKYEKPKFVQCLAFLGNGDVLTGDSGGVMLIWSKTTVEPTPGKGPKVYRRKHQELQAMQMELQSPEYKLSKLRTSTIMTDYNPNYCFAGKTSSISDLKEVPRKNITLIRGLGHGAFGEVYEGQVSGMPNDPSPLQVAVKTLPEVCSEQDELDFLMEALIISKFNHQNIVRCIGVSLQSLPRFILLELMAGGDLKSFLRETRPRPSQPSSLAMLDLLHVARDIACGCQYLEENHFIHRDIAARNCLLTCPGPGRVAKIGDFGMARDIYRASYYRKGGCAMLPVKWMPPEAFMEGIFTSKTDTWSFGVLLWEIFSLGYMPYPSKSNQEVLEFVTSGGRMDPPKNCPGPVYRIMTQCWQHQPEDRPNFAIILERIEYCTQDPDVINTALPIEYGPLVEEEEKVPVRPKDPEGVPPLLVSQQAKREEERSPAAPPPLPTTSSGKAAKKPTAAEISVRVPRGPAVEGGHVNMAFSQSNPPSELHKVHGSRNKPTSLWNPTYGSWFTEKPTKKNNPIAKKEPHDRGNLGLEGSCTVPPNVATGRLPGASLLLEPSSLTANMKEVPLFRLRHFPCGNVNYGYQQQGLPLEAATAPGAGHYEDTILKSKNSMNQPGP
# Source text: (§5) Genes encoding CD74-ROS1 wild-type (wt), CD74-ROS1 G2032R, CD74-ROS1 S1986F, CD74-ROS1 L2026M, CD74-ROS1 D2033N, EML4-ALK wt (variant 1), EML4-ALK G1202R (variant 1), EML4-ALK L1196M/G1202R (variant 1), EML4-ALK G1202R/G1269A (variant 1), EML4-ALK G1202R/L1198F (variant 1), and TPM3-TRKA were synthesized at GeneRay, cloned into the retroviral construct pMSCV-puro (Biovector), and packaged into retroviral particles. The virus was used to infect Ba/F3 cells (RIKEN) at multiplicity of infection=1 for 1 day. Infected cells were rescued in media (RPMI-1640 with 10% fetal bovine serum and 1% streptomycin and penicillin) supplemented with mouse IL-3 (10 ng/mL) for 2 days, and stable cell lines were selected by IL-3 withdrawal and puromycin (0.8 μg/mL) for 7 days. Monoclones were selected by single-cell dilution in IL-3-free medium containing puromycin (0.8 μg/mL). Transformation of desired genes was confirmed by Sanger sequencing and western blot using the following antibodies: ROS1 (CST #3287), ALK (CST #3633), and pan-TRK (Abcam #76291).
# as §2, §3, §4
# [4] = target: T3, Ba/F3 cells EML4-ALK L1196M/G1202R (variant 1) (Homo sapiens, UniProt Q9UM73, G1202R/L1196M); test: Ba/F3 cell proliferation assay, EML4-ALK L1196M/G1202R (variant 1); settings: 72 hours, CellTiter-Glo
# T3 construct: echinoderm microtubule-associated protein-like 4 (EML4) gene and the ALK tyrosine kinase domain; host or cells: Ba/F3 (RIKEN), retroviral pMSCV-puro; the other entry of the earlier key: EML4 (Q9HC35, Echinoderm microtubule-associated protein-like 4)
# T3 sequence (Q9UM73 with tags, fused parts or gaps L1196M/G1202R): as the sequence (Q9UM73 with tags, fused parts or gaps) above, with L635M, G641R counted along it
# Source text: as §5, §2, §3, §4
# Ba/F3 cells TPM3-TRKA = target: T4, Ba/F3 cells TPM3-TRKA (Homo sapiens, UniProt P04629); test: Ba/F3 cell proliferation assay, TPM3-TRKA; settings: 72 hours, CellTiter-Glo, read-out: TPM3-NTRK1-wt IC50
# T4 construct: host or cells: Ba/F3 (RIKEN), retroviral pMSCV-puro; the other entry of the earlier key: TPM3 (P06753, Tropomyosin alpha-3 chain)
# T4 sequence (P04629 510-796 limits assumed): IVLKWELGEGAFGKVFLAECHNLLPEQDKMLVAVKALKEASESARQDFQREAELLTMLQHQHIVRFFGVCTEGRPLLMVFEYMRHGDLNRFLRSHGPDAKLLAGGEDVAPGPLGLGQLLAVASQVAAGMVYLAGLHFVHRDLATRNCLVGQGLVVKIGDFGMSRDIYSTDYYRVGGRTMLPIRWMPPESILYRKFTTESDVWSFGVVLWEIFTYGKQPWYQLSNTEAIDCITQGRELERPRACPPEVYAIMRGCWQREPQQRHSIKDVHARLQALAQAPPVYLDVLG
# Source text: as §5, §2, §3, §4
# [5] = target: T5, Ba/F3 cells CD74-ROS1 wild-type (wt) (Homo sapiens, UniProt P08922); test: Ba/F3 cell proliferation assay, CD74-ROS1 wild-type; settings: 72 hours, CellTiter-Glo
# T5 construct: fusion of the C-terminus of ROS1 with the N-terminus of various partner proteins; host or cells: Ba/F3 (RIKEN), retroviral pMSCV-puro; the other entry of the earlier key: CD74 (P04233, HLA class II histocompatibility antigen gamma chain)
# T5 sequence (P08922 1883-2347 limits assumed): as the sequence (P08922 1883-2347 G2032R limits assumed) above, with R150G counted along it
# Procedure: as §1, §2, §3, §4
Compound,IC50 [1] [nM],TPM3-NTRK1-wt/CD74-ROS1-G2032R selectivity ratio [2],TPM3-NTRK1-wt/CD74-ROS1-wt selectivity ratio [2],TPM3-NTRK1-wt/EML4-ALK-L1196M-G1202R selectivity ratio [2],TPM3-NTRK1-wt/EML4-ALK-wt selectivity ratio [2],IC50 [3] [nM],IC50 [4] [nM],IC50 (Ba/F3 cells TPM3-TRKA) [nM],IC50 [5] [nM]
"C[C@H]1Oc2cc(cnc2N)-c2c(CC3CC3)noc2Cn2ncnc2-c2ccc(F)cc21 [Example 67, (19R)-3-(cyclopropylmethyl)-16-fluoro-19-methyl-5,20-dioxa-4,8,9,11,23-pentaazapentacyclo[19.3.1.0^2,^6.0^8,^12.0^13,^18]pentacosa-1(24),2(6),3,9,11,13,15,17,21(25),22-decaen-22-amine]",0.1 to 50,"A (bin A for very high selectivity, ratio >30-fold)","A (bin A for very high selectivity, ratio >30-fold)","C (bin C for moderate selectivity, ratio ≥1)","A (bin A for very high selectivity, ratio >30-fold)",0.1 to 50,50 to 500,> 500,0.1 to 50
"CCn1ncc2c1-c1cnc(N)c(c1)OCc1cc(F)ccc1-c1ccnn1C2 [Example 17, 3-ethyl-16-fluoro-20-oxa-3,4,8,9,23-pentaazapentacyclo[19.3.1.0^2,^6.0^8,^12.0^13,^18]pentacosa-1(24),2(6),4,9,11,13,15,17,21(25),22-decaen-22-amine]",50 to 500,"A (bin A for very high selectivity, ratio >30-fold)","A (bin A for very high selectivity, ratio >30-fold)","C (bin C for moderate selectivity, ratio ≥1)","B (bin B for high selectivity, ratio >10-fold)",50 to 500,> 500,> 500,0.1 to 50
Cc1nc2c(o1)-c1ccc(F)cc1C(C)Oc1cc(cnc1N)-c1c(c(Cl)nn1CC1CC1)C2 (stereo not shown) [Example 93],0.1 to 50,"A (bin A for very high selectivity, ratio >30-fold)","A (bin A for very high selectivity, ratio >30-fold)","B (bin B for high selectivity, ratio >10-fold)","A (bin A for very high selectivity, ratio >30-fold)",50 to 500,50 to 500,> 500,0.1 to 50
"CCn1ccc2c1-c1cnc(N)c(c1)O[C@H](C)c1cc(F)ccc1-c1nn(C)nc1C2 [Example 102, (19R)-3-ethyl-16-fluoro-10,19-dimethyl-20-oxa-3,9,10,11,23-pentaazapentacyclo[19.3.1.0^2,^6.0^8,^12.0^13,^18]pentacosa-1(24),2(6),4,8,11,13,15,17,21(25),22-decaen-22-amine]",50 to 500,"B (bin B for high selectivity, ratio >10-fold)","A (bin A for very high selectivity, ratio >30-fold)","C (bin C for moderate selectivity, ratio ≥1)","B (bin B for high selectivity, ratio >10-fold)",50 to 500,> 500,> 500,0.1 to 50
"CCn1nc(OC)c2c1-c1cnc(N)c(c1)O[C@H](C)c1cc(F)ccc1-c1cc(C)nn1C2 [Example 32, (19R)-3-ethyl-16-fluoro-5-methoxy-10,19-dimethyl-20-oxa-3,4,8,9,23-pentaazapentacyclo[19.3.1.0^2,^6.0^8,^12.0^13,^18]pentacosa-1(24),2(6),4,9,11,13,15,1 7,21(25),22-decaen-22-amine]",0.1 to 50,"A (bin A for very high selectivity, ratio >30-fold)","A (bin A for very high selectivity, ratio >30-fold)","C (bin C for moderate selectivity, ratio ≥1)","B (bin B for high selectivity, ratio >10-fold)",0.1 to 50,50 to 500,50 to 500,0.1 to 50
"CCn1nc(Cl)c2c1-c1cnc(N)c(c1)O[C@H](C)c1cc(F)ccc1-c1ncnn1C2 [Example 43, (19R)-5-chloro-3-ethyl-16-fluoro-19-methyl-20-oxa-3,4,8,9,11,23-hexaazapentacyclo[19.3.1.0^2,^6.0^8,^12.0^13,^18]pentacosa-1(24),2,(6),4,9,11,13,15,17,21(25),22-decaen-22-amine]",0.1 to 50,"A (bin A for very high selectivity, ratio >30-fold)","A (bin A for very high selectivity, ratio >30-fold)","C (bin C for moderate selectivity, ratio ≥1)","B (bin B for high selectivity, ratio >10-fold)",50 to 500,50 to 500,> 500,0.1 to 50
"CCn1ncc2c1-c1cnc(N)c(c1)O[C@H](C)c1cc(F)ccc1-c1ncn(C)c1C2 [Example 6, (19R)-3-ethyl-16-fluoro-9,19-dimethyl-20-oxa-3,4,9,11,23-pentaazapentacyclo[19.3.1.0^2,^6.0^8,^12.0^13,^18]pentacosa-1(24),2(6),4,8(12),10,13,15,17,21(25),22-decaen-22-amine]",0.1 to 50,"A (bin A for very high selectivity, ratio >30-fold)",–,"C (bin C for moderate selectivity, ratio ≥1)","A (bin A for very high selectivity, ratio >30-fold)",0.1 to 50,0.1 to 50,50 to 500,–
"CCn1ncc2c1-c1cnc(N)c(c1)O[C@H](C)c1cc(F)ccc1-c1cc(Br)nn1C2 [Example 94, (19R)-10-bromo-3-ethyl-16-fluoro-19-methyl-20-oxa-3,4,8,9,23-pentaazapentacyclo[19.3.1.0^2,^6.0^8,^12.0^13,^18]pentacosa-1(24),2(6),4,9,11,13,15,17,21(25),22-decaen-22-amine]",0.1 to 50,"A (bin A for very high selectivity, ratio >30-fold)","A (bin A for very high selectivity, ratio >30-fold)","C (bin C for moderate selectivity, ratio ≥1)","B (bin B for high selectivity, ratio >10-fold)",0.1 to 50,50 to 500,50 to 500,0.1 to 50
"Cc1nn(CC2CC2)c2c1Cn1nc(Cl)cc1-c1ccc(F)cc1[C@@H](C)Oc1cc-2cnc1N [Example 81, (19R)-10-chloro-3-(cyclopropylmethyl)-16-fluoro-5,19-dimethyl-20-oxa-3,4,8,9,23-pentaazapentacyclo[19.3.1.0^2,^6.0^8,^12.0^13,^18]pentacosa-1(24),2(6),4,9,ll,13,15,17,21(25),22-decaen-22-amine]",0.1 to 50,"A (bin A for very high selectivity, ratio >30-fold)","A (bin A for very high selectivity, ratio >30-fold)","C (bin C for moderate selectivity, ratio ≥1)","A (bin A for very high selectivity, ratio >30-fold)",50 to 500,> 500,> 500,0.1 to 50
